Like-named read-outs stand apart in the source and are kept apart here.
Tests used:
Test in all cases: biochemical
Type in all cases: binding
α4β2 nAChR subtype = molecular target: T1, α4β2 nAChR subtype (Rattus norvegicus, UniProt P09483+P12390)
T1 construct: expressed in transfected cells
Text: (§1) In order to assess the steric and hydropathic effects of the C-5 substituents of the pyridine on the binding affinity and subtype-selectivity at neuronal nicotinic acetylcholine receptors. […] The binding affinity ratios for a ligand, calculated from its affinities at an α subunit paired with either the β2 osubunit or the β4 subunit, represents a measure of the selectivity of that ligand with regard to the β subunits.

[1] = system: receptors in rat forebrain (mainly α4β2); conditions: Table 3; ratio of the corresponding Ki values
Text: as §1
(§2) In Vitro Inhibition of ^3H-Epibatidin Binding
(§3) The high affinity binding site for ^3H-epibatidin is most certainly binding to the α4β2 subtype of nicotinic receptors. The identity of the low affinity site is still believed to be unknown.
(§4) Tissue preparation: Preparations may be performed at 0-4° C. unless otherwise indicated. […] The tissue suspension may then be centrifuged at 27,000×g for 10 min. The supernatant is then discarded and the pellet may then be washed three times by centrifugation at 27,000×g for 10 min in 20 mL fresh buffer, and the final pellet may be resuspended in fresh buffer (400 mL per g of original tissue) and used for binding assays.
(§5) Assay: Aliquots of 2.0 mL homogenate may be added to 0.100 mL of test solution and 0.100 mL of ^3H-epibatidin (0.3 nM, final concentration), mixed and incubated for 60 min at room temperature. […] The amount of radioactivity on the filters may be determined by conventional liquid scintillation counting. Specific binding is total binding minus non-specific binding.

α2β4 nAChR subtype = molecular target: T2, α2β4 nAChR subtype (Rattus norvegicus, UniProt P12389+P12392)
T2 construct: expressed in transfected cells
Text: as §1

α4β4 nAChR subtype = molecular target: T3, α4β4 nAChR subtype (Rattus norvegicus, UniProt P09483+P12392)
T3 construct: expressed in transfected cells
Text: as §1

α2β2 nAChR subtype = molecular target: T4, α2β2 nAChR subtype (Rattus norvegicus, UniProt P12389+P12390)
T4 construct: expressed in transfected cells
Text: as §1

α3β4 nAChR subtype = molecular target: T5, α3β4 nAChR subtype (Rattus norvegicus, UniProt P04757+P12392)
T5 construct: expressed in transfected cells
Text: as §1

α3β2 nAChR subtype = molecular target: T6, α3β2 nAChR subtype (Rattus norvegicus, UniProt P04757+P12390)
T6 construct: expressed in transfected cells
Text: as §1

[2] = molecular target: T7, receptors in rat forebrain (mainly α4β2) (Rattus norvegicus, UniProt P09483+P12390)
T7 construct: from tissue; host or cells: rat forebrain homogenate
Text: as §1, §2, §3, §4, §5

[3] = Ki α2β4, Table 5, rat nAChR subtypes
[4] = Ki α4β2, Table 5, rat nAChR subtypes
[5] = Ki α4β4, Table 5, rat nAChR subtypes
[6] = Ki α2β2, Table 5, rat nAChR subtypes
[7] = Ki α3β4, Table 5, rat nAChR subtypes
[8] = Ki α3β2, Table 5, rat nAChR subtypes
[9] = Ki α4β2*, Table 5, *Rat forebrain, mainly α4β2
[10] = Table 5, rat nAChR subtypes, read-out: Ki α2β4
[11] = Table 5, rat nAChR subtypes, read-out: Ki α4β2
[12] = Table 5, rat nAChR subtypes, read-out: Ki α4β4
[13] = Table 5, rat nAChR subtypes, read-out: Ki α2β2
[14] = Table 5, rat nAChR subtypes, read-out: Ki α3β4
[15] = Table 5, rat nAChR subtypes, read-out: Ki α3β2
[16] = Table 5, *Rat forebrain, mainly α4β2, read-out: Ki α4β2*

T5 sequence (P04757 26-499): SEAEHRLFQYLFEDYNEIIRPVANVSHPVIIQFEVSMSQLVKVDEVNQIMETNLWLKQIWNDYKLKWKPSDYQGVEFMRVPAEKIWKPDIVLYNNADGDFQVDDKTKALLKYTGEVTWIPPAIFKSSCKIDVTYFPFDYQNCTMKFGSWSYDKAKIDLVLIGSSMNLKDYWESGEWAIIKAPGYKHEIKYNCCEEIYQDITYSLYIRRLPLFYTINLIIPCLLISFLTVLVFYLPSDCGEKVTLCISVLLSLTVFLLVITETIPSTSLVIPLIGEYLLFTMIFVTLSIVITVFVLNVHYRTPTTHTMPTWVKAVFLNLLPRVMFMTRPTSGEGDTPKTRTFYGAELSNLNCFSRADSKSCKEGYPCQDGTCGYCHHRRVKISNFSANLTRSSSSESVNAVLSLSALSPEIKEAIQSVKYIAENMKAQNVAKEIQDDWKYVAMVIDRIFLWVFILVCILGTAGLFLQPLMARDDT
T5 sequence (P12392 21-495): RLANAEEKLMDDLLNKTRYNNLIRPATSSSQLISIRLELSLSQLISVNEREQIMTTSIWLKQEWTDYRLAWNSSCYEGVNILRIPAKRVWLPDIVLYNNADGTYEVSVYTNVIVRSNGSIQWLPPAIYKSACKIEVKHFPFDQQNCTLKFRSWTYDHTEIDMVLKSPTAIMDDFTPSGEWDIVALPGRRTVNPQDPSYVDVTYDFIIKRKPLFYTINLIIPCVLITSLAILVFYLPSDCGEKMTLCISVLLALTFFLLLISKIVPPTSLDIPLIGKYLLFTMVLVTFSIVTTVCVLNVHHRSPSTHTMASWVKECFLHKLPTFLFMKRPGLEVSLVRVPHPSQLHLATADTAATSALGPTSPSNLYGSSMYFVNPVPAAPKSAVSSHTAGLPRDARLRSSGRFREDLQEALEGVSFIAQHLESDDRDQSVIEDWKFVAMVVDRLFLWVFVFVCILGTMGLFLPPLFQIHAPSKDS
T1 sequence (P12390 25-500): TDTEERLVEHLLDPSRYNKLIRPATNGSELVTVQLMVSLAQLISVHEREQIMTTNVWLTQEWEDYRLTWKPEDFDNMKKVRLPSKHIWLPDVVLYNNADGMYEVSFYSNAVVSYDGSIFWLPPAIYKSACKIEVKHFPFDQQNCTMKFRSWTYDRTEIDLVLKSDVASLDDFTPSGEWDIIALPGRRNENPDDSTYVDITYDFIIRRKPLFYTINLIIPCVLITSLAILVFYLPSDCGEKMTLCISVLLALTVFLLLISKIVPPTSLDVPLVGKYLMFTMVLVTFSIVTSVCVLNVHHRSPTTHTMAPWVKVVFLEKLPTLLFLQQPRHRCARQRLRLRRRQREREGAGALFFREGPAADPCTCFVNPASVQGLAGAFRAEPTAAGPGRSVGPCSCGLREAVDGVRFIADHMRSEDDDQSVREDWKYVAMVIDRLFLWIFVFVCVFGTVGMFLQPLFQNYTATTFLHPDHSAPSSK
T1 sequence (P09483 31-630): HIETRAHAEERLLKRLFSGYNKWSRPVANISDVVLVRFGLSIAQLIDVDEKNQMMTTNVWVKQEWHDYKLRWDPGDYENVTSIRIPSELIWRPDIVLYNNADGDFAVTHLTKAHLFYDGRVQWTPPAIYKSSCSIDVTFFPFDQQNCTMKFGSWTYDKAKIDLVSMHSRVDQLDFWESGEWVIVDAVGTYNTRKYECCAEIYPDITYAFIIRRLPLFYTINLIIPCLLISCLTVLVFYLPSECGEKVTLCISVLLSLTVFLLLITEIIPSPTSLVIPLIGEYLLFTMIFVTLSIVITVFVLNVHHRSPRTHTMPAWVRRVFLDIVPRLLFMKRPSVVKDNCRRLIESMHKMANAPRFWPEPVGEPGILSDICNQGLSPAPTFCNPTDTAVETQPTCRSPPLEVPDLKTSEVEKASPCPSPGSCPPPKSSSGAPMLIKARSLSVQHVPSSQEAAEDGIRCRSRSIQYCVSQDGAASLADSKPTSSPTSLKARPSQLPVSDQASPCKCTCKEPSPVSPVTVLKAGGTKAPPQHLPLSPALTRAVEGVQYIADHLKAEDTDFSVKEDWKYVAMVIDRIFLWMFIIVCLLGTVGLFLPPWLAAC
T6 sequence (P12390 25-500): as the sequence (P12390 25-500) above
T6 sequence (P04757 26-499): as the sequence (P04757 26-499) above
T4 sequence (P12390 25-500): as the sequence (P12390 25-500) above
T4 sequence (P12389 28-511): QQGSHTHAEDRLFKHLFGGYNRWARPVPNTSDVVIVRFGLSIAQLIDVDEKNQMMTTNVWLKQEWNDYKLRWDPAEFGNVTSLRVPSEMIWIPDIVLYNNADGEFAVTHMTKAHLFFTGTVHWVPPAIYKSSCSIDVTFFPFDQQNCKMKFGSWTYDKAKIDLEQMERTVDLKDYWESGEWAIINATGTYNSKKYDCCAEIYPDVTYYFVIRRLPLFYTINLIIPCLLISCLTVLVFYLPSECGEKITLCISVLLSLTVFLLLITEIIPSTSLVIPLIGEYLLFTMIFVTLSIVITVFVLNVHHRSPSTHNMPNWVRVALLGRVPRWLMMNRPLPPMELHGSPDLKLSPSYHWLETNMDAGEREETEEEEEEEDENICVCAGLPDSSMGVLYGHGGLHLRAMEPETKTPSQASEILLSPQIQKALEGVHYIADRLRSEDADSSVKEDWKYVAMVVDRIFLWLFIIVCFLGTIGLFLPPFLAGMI
T3 sequence (P12392 21-495): as the sequence (P12392 21-495) above
T3 sequence (P09483 31-630): as the sequence (P09483 31-630) above
T2 sequence (P12389 28-511): as the sequence (P12389 28-511) above
T2 sequence (P12392 21-495): as the sequence (P12392 21-495) above
T7 sequence (P09483 31-630): as the sequence (P09483 31-630) above
T7 sequence (P12390 25-500): as the sequence (P12390 25-500) above

Compound: FCCCCC#Cc1cncc(OC[C@@H]2CCN2)c1 [Ligand 41]
- affinities for α4β2 nAChR subtype (in words) (α4β2 nAChR subtype): subnanomolar
- Affinity ratio (α3β4/Forbrain) [1]: 15,166

Compound: O=c1cccc2n1C[C@H]1C[C@@H]2CN(CCCN2C[C@@H]3C[C@H](C2)c2cccc(=O)n2C3)C1 [ZW-18]
- Ki (α2β4 nAChR subtype): 3480 nM
- Ki (α4β2 nAChR subtype): 468 nM
- Ki (α4β4 nAChR subtype): 746 nM
- Ki (α2β2 nAChR subtype): 318 nM
- Ki (α3β4 nAChR subtype): > 10000 nM
- Ki (α3β2 nAChR subtype): > 1000 nM
- Ki [2]: 936 nM

Compound: O=c1cccc2n1C[C@H]1C[C@@H]2CN(CCCCCN2C[C@@H]3C[C@H](C2)c2cccc(=O)n2C3)C1 [ZW-19]
- Ki (α2β4 nAChR subtype): 1430 nM
- Ki (α4β2 nAChR subtype): 383 nM
- Ki (α4β4 nAChR subtype): 468 nM
- Ki (α2β2 nAChR subtype): 240 nM
- Ki (α3β4 nAChR subtype): > 10000 nM
- Ki (α3β2 nAChR subtype): > 1000 nM
- Ki [2]: 603 nM

Compound: Clc1ccc(C2CC3CC4(OCCO4)C2N3)cn1 (centres unmarked) [ZW-82]
- Ki (α2β4 nAChR subtype; [3]): 93.8 nM
- Ki (α4β2 nAChR subtype; [4]): 57.3 nM
- Ki (α4β4 nAChR subtype; [5]): 53.1 nM
- Ki (α2β2 nAChR subtype; [6]): 30 nM
- Ki (α3β4 nAChR subtype; [7]): 173 nM
- Ki (α3β2 nAChR subtype; [8]): 147 nM
- Ki [2, 9]: 304 nM

Compound: Clc1ccc(C2CC3CCC2N3CCN2C3CCC2CC3)cn1 (centres unmarked) [ZW-84]
- Ki (α2β4 nAChR subtype; [3]): 16.6 nM
- Ki (α4β2 nAChR subtype; [4]): 21.9 nM
- Ki (α4β4 nAChR subtype; [5]): 84.5 nM
- Ki (α2β2 nAChR subtype; [6]): 7.08 nM
- Ki (α3β4 nAChR subtype; [7]): 67.6 nM
- Ki (α3β2 nAChR subtype; [8]): 21.1 nM
- Ki [2, 9]: 112 nM

Compound: CCCCCc1cncc(C2CC3CCC2N3)c1 (centres unmarked) [ZW-95]
- Ki (α2β4 nAChR subtype; [3]): 24.9 nM
- Ki (α4β2 nAChR subtype; [4]): 0.151 nM
- Ki (α4β4 nAChR subtype; [5]): 7.91 nM
- Ki (α2β2 nAChR subtype; [6]): 0.323 nM
- Ki (α3β4 nAChR subtype; [7]): 122 nM
- Ki (α3β2 nAChR subtype; [8]): 0.165 nM
- Ki [2, 9]: 0.314 nM

Compound: COC(=O)c1nc(Cl)ccc1C1CC2CCC1N2 (centres unmarked) [ZW-96]
- Ki (α2β4 nAChR subtype; [3]): 28100 nM
- Ki (α4β2 nAChR subtype; [4]): 7870 nM
- Ki (α4β4 nAChR subtype; [5]): 46500 nM
- Ki (α2β2 nAChR subtype; [6]): 5410 nM
- Ki (α3β4 nAChR subtype; [7]): 10700 nM
- Ki (α3β2 nAChR subtype; [8]): 5510 nM
- Ki [2, 9]: 18400 nM

Compound: CC(N)C#Cc1cncc(OC[C@@H]2CCCN2C)c1 (some centres unmarked) [ZW-99]
- Ki (α2β4 nAChR subtype): 7400 nM
- Ki (α4β2 nAChR subtype): 7.18 nM
- Ki (α4β4 nAChR subtype): 6130 nM
- Ki (α2β2 nAChR subtype): 7.52 nM
- Ki (α3β4 nAChR subtype): 127000 nM
- Ki (α3β2 nAChR subtype): 47.4 nM
- Ki [2]: 41.4 nM

Compound: Decane-1,3-N,N′-bisepibatidine [Ligand 59d]
- Ki (α2β4 nAChR subtype; [10]): 24.2 nM
- Ki (α4β2 nAChR subtype; [11]): 10.3 nM
- Ki (α4β4 nAChR subtype; [12]): 18.7 nM
- Ki (α2β2 nAChR subtype; [13]): 5.78 nM
- Ki (α3β4 nAChR subtype; [14]): 67.7 nM
- Ki (α3β2 nAChR subtype; [15]): 6.75 nM
- Ki [2, 16]: 13.9 nM

Compound: Hexane-1,3-N,N′-bisepibatidine [Ligand 59c]
- Ki (α2β4 nAChR subtype; [10]): 37.4 nM
- Ki (α4β2 nAChR subtype; [11]): 7.2 nM
- Ki (α4β4 nAChR subtype; [12]): 31.9 nM
- Ki (α2β2 nAChR subtype; [13]): 4.12 nM
- Ki (α3β4 nAChR subtype; [14]): 64.7 nM
- Ki (α3β2 nAChR subtype; [15]): 6.61 nM
- Ki [2, 16]: 14.2 nM

Source: patent US8030300B2, “Ligands for nicotinic acetylcholine receptors, and methods of making and using them” (priority 2003, dated 2011)
